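Following 48 hours of exposure in 96-well plates, responses at five concentrations were used to interpolate endpoints linearly. TGI is the concentration that stops growth completely.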
Columns and labels:
Experiment in all cases: NCI anticancer screen, dose series, 48 h
SF-539 CNS = tested on: SF-539 CNS
M19-MEL melanoma = tested on: M19-MEL melanoma
NCI-H522 lung = tested on: NCI-H522 lung
SNB-75 CNS = tested on: SNB-75 CNS
SR leukemia = tested on: SR leukemia
OVCAR-4 ovarian = tested on: OVCAR-4 ovarian
A498 renal = tested on: A498 renal
SNB-19 CNS = tested on: SNB-19 CNS
IGROV1 ovarian = tested on: IGROV1 ovarian
M14 melanoma = tested on: M14 melanoma
SN12C renal = tested on: SN12C renal
NCI-H23 lung = tested on: NCI-H23 lung
LXFL 529 NSCLC = tested on: LXFL 529 NSCLC
HOP-92 NSCLC = tested on: HOP-92 NSCLC
CAKI-1 renal = tested on: CAKI-1 renal
UO-31 renal = tested on: UO-31 renal
K-562 leukemia = tested on: K-562 leukemia
A549 NSCLC = tested on: A549 NSCLC
HT29 colon = tested on: HT29 colon
HL-60(TB) leukemia = tested on: HL-60(TB) leukemia
MOLT-4 leukemia = tested on: MOLT-4 leukemia
NCI-H460 lung = tested on: NCI-H460 lung
UACC-257 melanoma = tested on: UACC-257 melanoma
KM20L2 colon = tested on: KM20L2 colon
EKVX NSCLC = tested on: EKVX NSCLC
OVCAR-8 ovarian = tested on: OVCAR-8 ovarian
HCC-2998 colon = tested on: HCC-2998 colon
NCI-H226 lung = tested on: NCI-H226 lung
OVCAR-3 ovarian = tested on: OVCAR-3 ovarian
SK-OV-3 ovarian = tested on: SK-OV-3 ovarian
CCRF-CEM leukemia = tested on: CCRF-CEM leukemia
SNB-78 CNS = tested on: SNB-78 CNS
XF 498 CNS = tested on: XF 498 CNS
HOP-62 NSCLC = tested on: HOP-62 NSCLC
786-0 renal = tested on: 786-0 renal
MALME-3M melanoma = tested on: MALME-3M melanoma
SF-268 CNS = tested on: SF-268 CNS
HCT-116 colon = tested on: HCT-116 colon
RXF-631 renal = tested on: RXF-631 renal
SK-MEL-28 melanoma = tested on: SK-MEL-28 melanoma
DLD-1 colon = tested on: DLD-1 colon
RXF 393 renal = tested on: RXF 393 renal
U251 CNS = tested on: U251 CNS
OVCAR-5 ovarian = tested on: OVCAR-5 ovarian
DMS 273 small cell lung = tested on: DMS 273 small cell lung
SK-MEL-5 melanoma = tested on: SK-MEL-5 melanoma
TK-10 renal = tested on: TK-10 renal
COLO 205 colon = tested on: COLO 205 colon
SW-620 colon = tested on: SW-620 colon
KM12 colon = tested on: KM12 colon
ACHN renal = tested on: ACHN renal
UACC-62 melanoma = tested on: UACC-62 melanoma
RPMI-8226 leukemia = tested on: RPMI-8226 leukemia
HOP-18 NSCLC = tested on: HOP-18 NSCLC
SK-MEL-2 melanoma = tested on: SK-MEL-2 melanoma
HCT-15 colon = tested on: HCT-15 colon
SF-295 CNS = tested on: SF-295 CNS
LOX IMVI melanoma = tested on: LOX IMVI melanoma
DMS 114 small cell lung = tested on: DMS 114 small cell lung

`Cc1ccccc1NC(=O)C(=O)C1CN(c2ccccc2)N=C1N` (stereo not given) gave a TGI (SF-539 CNS) greater than 100 µM, a TGI (M19-MEL melanoma) greater than 100 µM and a TGI (NCI-H522 lung) greater than 100 µM. The TGI (SNB-75 CNS) was greater than 100 µM, the TGI (SR leukemia) was greater than 100 µM and the TGI (OVCAR-4 ovarian) was greater than 100 µM. For the same compound, the TGI (A498 renal) was greater than 100 µM, the TGI (SNB-19 CNS) was greater than 100 µM and the TGI (IGROV1 ovarian) was greater than 100 µM. The TGI (M14 melanoma) was greater than 100 µM, the TGI (SN12C renal) was greater than 100 µM and the TGI (NCI-H23 lung) was greater than 100 µM. The TGI (LXFL 529 NSCLC) was greater than 100 µM, the TGI (HOP-92 NSCLC) was greater than 100 µM and the TGI (CAKI-1 renal) was greater than 100 µM. For the same compound, the TGI (UO-31 renal) was greater than 100 µM, the TGI (K-562 leukemia) was greater than 100 µM and the TGI (A549 NSCLC) was greater than 100 µM. The TGI (HT29 colon) was greater than 100 µM, the TGI (HL-60(TB) leukemia) was greater than 100 µM and the TGI (MOLT-4 leukemia) was greater than 100 µM. It also gave a TGI (NCI-H460 lung) greater than 100 µM, a TGI (UACC-257 melanoma) greater than 100 µM and a TGI (KM20L2 colon) greater than 100 µM. It also gave a TGI (EKVX NSCLC) greater than 100 µM, a TGI (OVCAR-8 ovarian) greater than 100 µM and a TGI (HCC-2998 colon) greater than 100 µM. The TGI (NCI-H226 lung) was greater than 100 µM, the TGI (OVCAR-3 ovarian) was greater than 100 µM and the TGI (SK-OV-3 ovarian) was greater than 100 µM. It also gave a TGI (CCRF-CEM leukemia) greater than 100 µM, a TGI (SNB-78 CNS) greater than 100 µM and a TGI (XF 498 CNS) greater than 100 µM. It also gave a TGI (HOP-62 NSCLC) greater than 100 µM, a TGI (786-0 renal) greater than 100 µM and a TGI (MALME-3M melanoma) greater than 100 µM. The TGI (SF-268 CNS) was greater than 100 µM, the TGI (HCT-116 colon) was greater than 100 µM and the TGI (RXF-631 renal) was greater than 100 µM. The TGI (SK-MEL-28 melanoma) was greater than 100 µM, the TGI (DLD-1 colon) was greater than 100 µM and the TGI (RXF 393 renal) was greater than 100 µM. For the same compound, the TGI (U251 CNS) was greater than 100 µM.

`CCCCCCCCNC(=O)SCCCC` showed a TGI (SF-539 CNS) greater than 100 µM, a TGI (OVCAR-5 ovarian) greater than 100 µM and a TGI (M19-MEL melanoma) greater than 100 µM. The TGI (NCI-H522 lung) was 76.7 µM, the TGI (SNB-75 CNS) was 68.8 µM and the TGI (DMS 273 small cell lung) was greater than 100 µM. For the same compound, the TGI (OVCAR-4 ovarian) was greater than 100 µM, the TGI (A498 renal) was greater than 100 µM and the TGI (SNB-19 CNS) was 87.9 µM. The TGI (IGROV1 ovarian) was greater than 100 µM, the TGI (SK-MEL-5 melanoma) was 44.4 µM and the TGI (M14 melanoma) was greater than 100 µM. It also gave a TGI (TK-10 renal) greater than 100 µM, a TGI (SN12C renal) greater than 100 µM and a TGI (NCI-H23 lung) greater than 100 µM. It also gave a TGI (LXFL 529 NSCLC) greater than 100 µM, a TGI (HOP-92 NSCLC) of 49 µM and a TGI (COLO 205 colon) greater than 100 µM. The TGI (CAKI-1 renal) was 61.9 µM, the TGI (UO-31 renal) was 65.1 µM and the TGI (K-562 leukemia) was greater than 100 µM. The TGI (SW-620 colon) was greater than 100 µM, the TGI (A549 NSCLC) was greater than 100 µM and the TGI (HT29 colon) was 59.4 µM. It also gave a TGI (HL-60(TB) leukemia) of 43.7 µM, a TGI (KM12 colon) greater than 100 µM and a TGI (MOLT-4 leukemia) of 84.9 µM. It also gave a TGI (ACHN renal) greater than 100 µM, a TGI (UACC-62 melanoma) greater than 100 µM and a TGI (NCI-H460 lung) of 82.2 µM. The TGI (KM20L2 colon) was greater than 100 µM, the TGI (EKVX NSCLC) was 80.1 µM and the TGI (RPMI-8226 leukemia) was 58.7 µM. For the same compound, the TGI (HOP-18 NSCLC) was greater than 100 µM, the TGI (OVCAR-8 ovarian) was greater than 100 µM and the TGI (SK-MEL-2 melanoma) was 56.2 µM. It also gave a TGI (HCT-15 colon) greater than 100 µM, a TGI (OVCAR-3 ovarian) greater than 100 µM and a TGI (SK-OV-3 ovarian) greater than 100 µM. For the same compound, the TGI (CCRF-CEM leukemia) was 69 µM, the TGI (XF 498 CNS) was 37.5 µM and the TGI (786-0 renal) was greater than 100 µM. The TGI (MALME-3M melanoma) was 63.1 µM, the TGI (SF-268 CNS) was greater than 100 µM and the TGI (SF-295 CNS) was greater than 100 µM. It also gave a TGI (RXF-631 renal) greater than 100 µM, a TGI (SK-MEL-28 melanoma) greater than 100 µM and a TGI (DLD-1 colon) greater than 100 µM. The TGI (RXF 393 renal) was 68 µM, the TGI (LOX IMVI melanoma) was 39.2 µM and the TGI (U251 CNS) was greater than 100 µM.

In the case of `CC(=O)Nc1cccc2[nH]c3ccccc3c(=O)c12`, the TGI (SF-539 CNS) is reported as 63.7 µM, the TGI (OVCAR-5 ovarian) is reported as 54.2 µM and the TGI (M19-MEL melanoma) is reported as 51.1 µM. The TGI (NCI-H522 lung) was 26.2 µM, the TGI (SNB-75 CNS) was 65.9 µM and the TGI (DMS 273 small cell lung) was greater than 100 µM. It also gave a TGI (OVCAR-4 ovarian) of 65.1 µM, a TGI (A498 renal) of 29.6 µM and a TGI (SNB-19 CNS) of 64.1 µM. For the same compound, the TGI (IGROV1 ovarian) was 70.3 µM, the TGI (SK-MEL-5 melanoma) was 30.4 µM and the TGI (M14 melanoma) was greater than 100 µM. For the same compound, the TGI (TK-10 renal) was 50.1 µM, the TGI (SN12C renal) was greater than 100 µM and the TGI (NCI-H23 lung) was 29.5 µM. It also gave a TGI (COLO 205 colon) of 34 µM, a TGI (CAKI-1 renal) of 45.3 µM and a TGI (UO-31 renal) of 32.7 µM. The TGI (K-562 leukemia) was greater than 100 µM, the TGI (SW-620 colon) was 58.3 µM and the TGI (A549 NSCLC) was 55.6 µM. The TGI (HT29 colon) was 40.9 µM, the TGI (HL-60(TB) leukemia) was 39.8 µM and the TGI (KM12 colon) was 41.2 µM. For the same compound, the TGI (MOLT-4 leukemia) was greater than 100 µM, the TGI (ACHN renal) was 52.3 µM and the TGI (UACC-62 melanoma) was 31.1 µM. The TGI (NCI-H460 lung) was 43.2 µM, the TGI (UACC-257 melanoma) was 58.3 µM and the TGI (KM20L2 colon) was 83.3 µM. The TGI (EKVX NSCLC) was 78.6 µM, the TGI (RPMI-8226 leukemia) was 43.8 µM and the TGI (HOP-18 NSCLC) was 38.6 µM. The TGI (OVCAR-8 ovarian) was 45.1 µM, the TGI (DMS 114 small cell lung) was 79.6 µM and the TGI (SK-MEL-2 melanoma) was 38.7 µM. It also gave a TGI (NCI-H226 lung) of 40.5 µM, a TGI (HCT-15 colon) of 42.7 µM and a TGI (OVCAR-3 ovarian) of 39.5 µM. The TGI (SK-OV-3 ovarian) was 67.4 µM, the TGI (CCRF-CEM leukemia) was greater than 100 µM and the TGI (XF 498 CNS) was 50.2 µM. The TGI (786-0 renal) was 51.1 µM, the TGI (MALME-3M melanoma) was 50.1 µM and the TGI (SF-268 CNS) was 95.4 µM. For the same compound, the TGI (SF-295 CNS) was 51.1 µM, the TGI (HCT-116 colon) was 28.6 µM and the TGI (RXF-631 renal) was 94.8 µM. For the same compound, the TGI (SK-MEL-28 melanoma) was 92.3 µM, the TGI (DLD-1 colon) was 53.6 µM and the TGI (U251 CNS) was 75.5 µM.

Reference: PubChem BioAssay (NCI)
